# Legend:
# [1] = target: Histone deacetylase 1 (Homo sapiens, UniProt Q13547); assay: Inhibition of recombinant human His-tagged HDAC1 expressed in insect cells using Ac-Leu-Gly-Lys(Ac)-AMC as substrate measured after 30 mins by fluorescence assay
# [2] = target: Histone deacetylase 2 (Homo sapiens, UniProt Q92769); assay: Inhibition of human full-length C-terminal FLAG-tagged HDAC2 expressed in baculovirus infected Sf9 insect cells using Ac-Leu-Gly-Lys(Ac)-AMC as substrate measured after 30 mins by fluorescence assay; assay type: cell-based
# Sequence of Histone deacetylase 2 (Q92769 whole entry, the tested form may be a part): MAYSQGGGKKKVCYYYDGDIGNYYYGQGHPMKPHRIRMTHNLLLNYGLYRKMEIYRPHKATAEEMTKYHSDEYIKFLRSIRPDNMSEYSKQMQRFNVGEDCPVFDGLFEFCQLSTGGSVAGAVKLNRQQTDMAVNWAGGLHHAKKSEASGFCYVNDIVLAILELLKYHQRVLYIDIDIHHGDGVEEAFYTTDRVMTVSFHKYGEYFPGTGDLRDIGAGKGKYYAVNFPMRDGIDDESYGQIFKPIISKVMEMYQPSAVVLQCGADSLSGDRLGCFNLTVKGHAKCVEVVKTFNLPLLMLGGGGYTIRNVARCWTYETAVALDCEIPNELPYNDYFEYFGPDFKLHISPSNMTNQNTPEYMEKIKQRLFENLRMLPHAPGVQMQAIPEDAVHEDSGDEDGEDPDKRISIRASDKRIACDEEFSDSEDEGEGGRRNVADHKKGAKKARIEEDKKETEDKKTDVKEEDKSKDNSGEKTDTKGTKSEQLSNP
# [3] = target: Histone deacetylase 3/NCoR1 (Homo sapiens, UniProt O15379); assay: Inhibition of recombinant human GST-fused HDAC3/NCOR1 (397 to 503 residues) expressed in baculovirus infected insect cells using Ac-Leu-Gly-Lys(Ac)-AMC as substrate measured after 30 mins by fluorescence assay
# [4] = target: T1, Histone deacetylase 8 (Homo sapiens, UniProt Q9BY41); assay: Inhibition of recombinant human full-length C-terminal His-tagged HDAC8 expressed in baculovirus infected Sf9 insect cells using Ac-Leu-Gly-Lys(Tfa)-AMC as substrate measured after 30 mins by fluorescence assay
# T1 sequence (Q9BY41 whole entry): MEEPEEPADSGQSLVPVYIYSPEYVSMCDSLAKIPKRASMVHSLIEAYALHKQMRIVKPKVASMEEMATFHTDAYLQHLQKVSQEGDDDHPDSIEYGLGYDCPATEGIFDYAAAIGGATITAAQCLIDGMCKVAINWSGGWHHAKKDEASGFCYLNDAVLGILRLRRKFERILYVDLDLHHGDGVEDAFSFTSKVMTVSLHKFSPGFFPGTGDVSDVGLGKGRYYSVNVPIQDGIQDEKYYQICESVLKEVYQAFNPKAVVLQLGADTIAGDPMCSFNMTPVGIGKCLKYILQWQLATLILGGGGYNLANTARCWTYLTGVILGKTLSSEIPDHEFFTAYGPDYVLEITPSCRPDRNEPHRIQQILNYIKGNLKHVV
# [5] = target: Histone deacetylase 4 (Homo sapiens, UniProt P56524); assay: Inhibition of recombinant human N-terminal GST-tagged HDAC4 (627 to end residues) expressed in baculovirus infected Sf9 insect cells using AcLeu-Gly-Lys(Tfa)-AMC as substrate measured after 30 mins by fluorescence assay
# Sequence of Histone deacetylase 4 (P56524 whole entry): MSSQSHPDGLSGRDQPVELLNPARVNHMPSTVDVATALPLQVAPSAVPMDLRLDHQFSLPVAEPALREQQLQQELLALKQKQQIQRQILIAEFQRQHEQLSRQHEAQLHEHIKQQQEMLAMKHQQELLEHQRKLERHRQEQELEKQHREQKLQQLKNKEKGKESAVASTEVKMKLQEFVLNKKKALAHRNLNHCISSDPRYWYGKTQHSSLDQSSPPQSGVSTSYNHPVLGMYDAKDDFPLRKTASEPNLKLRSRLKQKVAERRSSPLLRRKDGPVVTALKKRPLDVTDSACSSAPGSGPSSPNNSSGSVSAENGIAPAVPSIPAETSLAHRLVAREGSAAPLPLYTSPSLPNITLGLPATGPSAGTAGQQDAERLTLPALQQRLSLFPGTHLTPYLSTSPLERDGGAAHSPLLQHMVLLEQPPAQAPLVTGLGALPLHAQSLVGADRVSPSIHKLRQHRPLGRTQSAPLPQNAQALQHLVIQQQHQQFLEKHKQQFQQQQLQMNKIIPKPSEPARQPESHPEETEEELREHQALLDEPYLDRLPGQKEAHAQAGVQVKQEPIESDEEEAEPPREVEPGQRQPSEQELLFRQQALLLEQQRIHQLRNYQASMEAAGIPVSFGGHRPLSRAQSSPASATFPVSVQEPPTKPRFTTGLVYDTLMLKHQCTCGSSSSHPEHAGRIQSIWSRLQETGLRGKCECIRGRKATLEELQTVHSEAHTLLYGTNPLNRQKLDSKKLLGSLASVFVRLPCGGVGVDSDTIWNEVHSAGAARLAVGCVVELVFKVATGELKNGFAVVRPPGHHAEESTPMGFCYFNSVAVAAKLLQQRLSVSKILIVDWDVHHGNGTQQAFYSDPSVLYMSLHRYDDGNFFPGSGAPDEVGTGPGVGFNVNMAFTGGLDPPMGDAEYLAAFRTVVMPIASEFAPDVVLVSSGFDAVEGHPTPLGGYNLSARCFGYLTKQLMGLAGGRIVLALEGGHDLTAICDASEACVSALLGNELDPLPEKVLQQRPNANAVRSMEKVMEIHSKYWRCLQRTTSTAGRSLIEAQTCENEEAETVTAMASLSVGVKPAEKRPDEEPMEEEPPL
# [6] = target: Histone deacetylase 5 (Homo sapiens, UniProt Q9UQL6); assay: Inhibition of recombinant human full-length N-terminal GST-tagged HDAC5 expressed in baculovirus infected Sf9 insect cells using AcLeu-Gly-Lys(Tfa)-AMC as substrate measured after 30 mins by fluorescence assay
# Sequence of Histone deacetylase 5 (Q9UQL6 whole entry): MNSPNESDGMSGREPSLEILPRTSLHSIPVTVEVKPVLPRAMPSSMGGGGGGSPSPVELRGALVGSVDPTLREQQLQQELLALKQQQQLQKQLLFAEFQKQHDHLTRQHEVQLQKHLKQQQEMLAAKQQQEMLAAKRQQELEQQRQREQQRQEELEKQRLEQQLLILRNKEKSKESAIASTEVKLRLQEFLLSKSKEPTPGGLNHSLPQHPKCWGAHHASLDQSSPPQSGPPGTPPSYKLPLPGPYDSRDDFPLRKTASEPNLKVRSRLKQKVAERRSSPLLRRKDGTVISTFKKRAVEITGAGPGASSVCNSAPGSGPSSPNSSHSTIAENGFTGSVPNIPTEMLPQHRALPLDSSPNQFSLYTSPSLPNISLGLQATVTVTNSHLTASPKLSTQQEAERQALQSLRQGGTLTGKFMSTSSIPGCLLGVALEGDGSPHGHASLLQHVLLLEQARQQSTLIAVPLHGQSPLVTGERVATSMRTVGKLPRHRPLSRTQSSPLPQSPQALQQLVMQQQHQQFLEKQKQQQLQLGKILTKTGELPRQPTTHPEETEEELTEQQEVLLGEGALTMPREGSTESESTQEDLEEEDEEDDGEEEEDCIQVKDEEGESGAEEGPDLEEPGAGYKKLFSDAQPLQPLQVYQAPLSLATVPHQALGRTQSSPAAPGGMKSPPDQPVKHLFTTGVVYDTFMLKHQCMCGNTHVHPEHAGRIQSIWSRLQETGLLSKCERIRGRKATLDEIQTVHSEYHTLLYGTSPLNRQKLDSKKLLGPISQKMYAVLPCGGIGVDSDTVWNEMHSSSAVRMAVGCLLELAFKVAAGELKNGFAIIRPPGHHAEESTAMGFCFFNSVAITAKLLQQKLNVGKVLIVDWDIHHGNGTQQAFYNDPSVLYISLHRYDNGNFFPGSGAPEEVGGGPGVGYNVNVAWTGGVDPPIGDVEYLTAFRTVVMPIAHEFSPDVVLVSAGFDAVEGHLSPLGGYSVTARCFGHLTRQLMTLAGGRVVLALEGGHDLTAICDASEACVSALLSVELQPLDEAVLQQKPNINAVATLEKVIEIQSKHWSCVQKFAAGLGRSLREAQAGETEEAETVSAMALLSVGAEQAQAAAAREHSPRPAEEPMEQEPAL
# [7] = target: T2, Histone deacetylase 7 (Homo sapiens, UniProt Q8WUI4); assay: Inhibition of HDAC7 (unknown origin) using AcLeu-Gly-Lys(Tfa)-AMC as substrate measured after 30 mins by fluorescence assay
# T2 sequence (Q8WUI4 whole entry): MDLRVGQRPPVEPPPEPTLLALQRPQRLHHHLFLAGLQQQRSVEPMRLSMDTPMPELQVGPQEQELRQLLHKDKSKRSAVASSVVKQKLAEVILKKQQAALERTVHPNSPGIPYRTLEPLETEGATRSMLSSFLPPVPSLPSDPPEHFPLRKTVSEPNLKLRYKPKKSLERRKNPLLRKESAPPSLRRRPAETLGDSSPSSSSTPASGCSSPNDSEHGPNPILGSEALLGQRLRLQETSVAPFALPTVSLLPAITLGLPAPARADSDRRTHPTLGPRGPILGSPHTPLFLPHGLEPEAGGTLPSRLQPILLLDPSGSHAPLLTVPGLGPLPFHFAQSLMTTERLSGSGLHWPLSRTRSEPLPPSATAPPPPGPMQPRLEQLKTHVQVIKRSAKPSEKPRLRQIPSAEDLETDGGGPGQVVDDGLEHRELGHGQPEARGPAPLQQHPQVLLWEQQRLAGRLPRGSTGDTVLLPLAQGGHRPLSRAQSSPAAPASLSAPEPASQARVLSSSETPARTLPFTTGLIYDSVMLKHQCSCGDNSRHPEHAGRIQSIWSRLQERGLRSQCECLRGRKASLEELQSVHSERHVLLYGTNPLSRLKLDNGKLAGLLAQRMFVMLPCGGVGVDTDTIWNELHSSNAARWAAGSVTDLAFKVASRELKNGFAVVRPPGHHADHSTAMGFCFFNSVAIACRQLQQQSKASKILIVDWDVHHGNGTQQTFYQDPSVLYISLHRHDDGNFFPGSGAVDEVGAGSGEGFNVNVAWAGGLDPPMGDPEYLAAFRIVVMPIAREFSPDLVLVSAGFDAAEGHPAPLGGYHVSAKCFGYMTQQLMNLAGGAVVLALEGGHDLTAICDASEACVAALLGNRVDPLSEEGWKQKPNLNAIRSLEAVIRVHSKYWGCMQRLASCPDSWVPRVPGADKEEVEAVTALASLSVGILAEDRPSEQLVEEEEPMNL
# [8] = target: Histone deacetylase 9 (Homo sapiens, UniProt Q9UKV0); assay: Inhibition of recombinant human full-length N-terminal GST-tagged HDAC9 (1 to 1069 residues) expressed in wheat germ expression system using Ac-Leu-Gly-Lys(Tfa)-AMC as substrate measured after 30 mins by fluorescence assay
# Sequence of Histone deacetylase 9 (Q9UKV0 whole entry, the tested form may be a part): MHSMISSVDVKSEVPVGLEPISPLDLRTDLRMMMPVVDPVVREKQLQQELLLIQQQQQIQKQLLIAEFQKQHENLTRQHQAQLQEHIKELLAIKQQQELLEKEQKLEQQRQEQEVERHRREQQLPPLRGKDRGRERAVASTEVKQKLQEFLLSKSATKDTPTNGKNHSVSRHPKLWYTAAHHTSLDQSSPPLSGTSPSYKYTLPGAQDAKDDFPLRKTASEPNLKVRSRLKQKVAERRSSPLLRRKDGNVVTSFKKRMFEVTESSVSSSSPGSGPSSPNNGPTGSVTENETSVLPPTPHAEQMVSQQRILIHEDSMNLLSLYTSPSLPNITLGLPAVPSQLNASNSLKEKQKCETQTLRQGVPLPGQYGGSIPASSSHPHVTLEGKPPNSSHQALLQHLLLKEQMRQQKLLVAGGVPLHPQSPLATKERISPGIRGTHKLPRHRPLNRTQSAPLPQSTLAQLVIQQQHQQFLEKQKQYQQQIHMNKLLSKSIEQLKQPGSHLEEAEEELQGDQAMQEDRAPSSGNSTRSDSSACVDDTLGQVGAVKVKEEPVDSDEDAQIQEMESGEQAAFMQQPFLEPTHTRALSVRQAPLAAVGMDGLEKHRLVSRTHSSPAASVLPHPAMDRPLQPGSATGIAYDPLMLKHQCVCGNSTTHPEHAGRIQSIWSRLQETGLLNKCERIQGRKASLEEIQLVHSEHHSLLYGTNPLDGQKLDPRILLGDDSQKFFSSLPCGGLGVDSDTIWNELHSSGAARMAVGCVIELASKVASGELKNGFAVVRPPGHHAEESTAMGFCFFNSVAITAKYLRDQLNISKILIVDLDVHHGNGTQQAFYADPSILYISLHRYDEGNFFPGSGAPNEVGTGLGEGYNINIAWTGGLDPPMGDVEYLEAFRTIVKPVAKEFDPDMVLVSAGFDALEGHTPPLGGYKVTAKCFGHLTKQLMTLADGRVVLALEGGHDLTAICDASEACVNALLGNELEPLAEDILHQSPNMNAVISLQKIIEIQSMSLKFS
# [9] = target: T3, Histone deacetylase 11 (Homo sapiens, UniProt Q96DB2); assay: Inhibition of recombinant human N-terminal His-tagged HDAC11 expressed in baculovirus infected Sf9 insect cells using Ac-Arg-His-Lys(Ac)-Lys(Ac)-AMC as substrate measured after 30 mins by fluorescence assay
# T3 sequence (Q96DB2 whole entry): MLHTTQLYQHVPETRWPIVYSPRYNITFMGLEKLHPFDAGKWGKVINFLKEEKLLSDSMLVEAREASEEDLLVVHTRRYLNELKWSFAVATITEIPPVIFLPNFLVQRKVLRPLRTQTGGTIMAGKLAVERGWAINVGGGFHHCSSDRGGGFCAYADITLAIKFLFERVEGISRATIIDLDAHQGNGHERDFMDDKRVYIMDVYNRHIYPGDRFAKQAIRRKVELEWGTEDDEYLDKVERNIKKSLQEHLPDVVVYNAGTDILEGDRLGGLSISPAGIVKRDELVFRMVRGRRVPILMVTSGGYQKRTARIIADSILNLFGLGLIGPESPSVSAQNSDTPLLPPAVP
# [10] = Half life in Beagle dog at 20 mg/kg, po by LC-MS/MS analysis; assay type: ADME, organism-based, Canis lupus familiaris; conditions: in vivo
# [11] = Tmax in Beagle dog at 20 mg/kg, po by LC-MS/MS analysis; assay type: ADME, organism-based, Canis lupus familiaris; conditions: in vivo
# [12] = Cmax in Beagle dog at 20 mg/kg, po by LC-MS/MS analysis; assay type: ADME, organism-based, Canis lupus familiaris; set-up: route oral, dose 20 mg/kg; conditions: in vivo
# [13] = AUC (0 to t) in Beagle dog at 20 mg/kg, po by LC-MS/MS analysis; assay type: ADME, organism-based, Canis lupus familiaris; set-up: dose 20 mg/kg; conditions: in vivo
# [14] = AUC (0 to infinity) in Beagle dog at 20 mg/kg, po by LC-MS/MS analysis; assay type: ADME, organism-based, Canis lupus familiaris; set-up: route oral, time infinity, dose 20 mg/kg; conditions: in vivo
# [15] = target: T4, Protein deacetylase HDAC6 (Homo sapiens, UniProt Q9UBN7); assay: Inhibition of recombinant human His-tagged HDAC6 expressed in baculovirus infected insect cells using Ac-Leu-Gly-Lys(Ac)-AMC as substrate measured after 30 mins by fluorescence assay
# T4 sequence (Q9UBN7 whole entry): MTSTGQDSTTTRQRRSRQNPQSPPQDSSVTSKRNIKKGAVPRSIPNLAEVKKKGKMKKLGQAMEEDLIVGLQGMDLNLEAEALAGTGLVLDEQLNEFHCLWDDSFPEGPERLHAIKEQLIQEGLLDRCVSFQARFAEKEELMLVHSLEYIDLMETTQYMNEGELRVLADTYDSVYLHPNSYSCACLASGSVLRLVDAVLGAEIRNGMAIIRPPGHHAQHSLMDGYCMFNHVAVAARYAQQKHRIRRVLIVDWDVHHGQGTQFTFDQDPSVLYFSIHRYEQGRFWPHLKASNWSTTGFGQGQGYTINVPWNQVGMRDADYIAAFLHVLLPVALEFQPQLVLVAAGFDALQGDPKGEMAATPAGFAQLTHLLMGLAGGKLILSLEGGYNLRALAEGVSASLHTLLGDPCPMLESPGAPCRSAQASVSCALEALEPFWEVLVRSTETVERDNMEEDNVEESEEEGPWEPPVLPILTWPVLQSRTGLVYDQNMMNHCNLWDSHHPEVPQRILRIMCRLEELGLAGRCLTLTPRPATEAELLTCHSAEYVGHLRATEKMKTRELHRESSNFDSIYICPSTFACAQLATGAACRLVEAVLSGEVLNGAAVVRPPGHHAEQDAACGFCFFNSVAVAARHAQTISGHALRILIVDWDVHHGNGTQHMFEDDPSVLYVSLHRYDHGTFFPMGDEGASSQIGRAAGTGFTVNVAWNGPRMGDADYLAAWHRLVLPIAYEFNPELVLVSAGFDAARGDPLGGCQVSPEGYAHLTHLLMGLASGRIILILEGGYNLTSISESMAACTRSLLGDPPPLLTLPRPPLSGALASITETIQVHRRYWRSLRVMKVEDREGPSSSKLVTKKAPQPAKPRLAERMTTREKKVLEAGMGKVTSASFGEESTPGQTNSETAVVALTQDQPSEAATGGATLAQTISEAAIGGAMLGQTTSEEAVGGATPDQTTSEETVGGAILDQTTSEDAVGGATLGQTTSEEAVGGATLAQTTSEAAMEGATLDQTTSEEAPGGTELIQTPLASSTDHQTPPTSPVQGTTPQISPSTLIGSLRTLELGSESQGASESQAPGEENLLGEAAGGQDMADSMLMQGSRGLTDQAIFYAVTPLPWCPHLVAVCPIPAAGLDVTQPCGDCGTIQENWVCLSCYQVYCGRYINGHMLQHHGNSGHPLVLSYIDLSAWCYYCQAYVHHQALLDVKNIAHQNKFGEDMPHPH
# [16] = test system: MDA-MB-231; assay: Antiproliferative activity against human MDA-MB-231 cells measured after 24 hrs by MTT assay; assay type: functional, cell-based; conditions: MDA-MB-231, 24 h
# Sequence of Histone deacetylase 1 (Q13547 whole entry): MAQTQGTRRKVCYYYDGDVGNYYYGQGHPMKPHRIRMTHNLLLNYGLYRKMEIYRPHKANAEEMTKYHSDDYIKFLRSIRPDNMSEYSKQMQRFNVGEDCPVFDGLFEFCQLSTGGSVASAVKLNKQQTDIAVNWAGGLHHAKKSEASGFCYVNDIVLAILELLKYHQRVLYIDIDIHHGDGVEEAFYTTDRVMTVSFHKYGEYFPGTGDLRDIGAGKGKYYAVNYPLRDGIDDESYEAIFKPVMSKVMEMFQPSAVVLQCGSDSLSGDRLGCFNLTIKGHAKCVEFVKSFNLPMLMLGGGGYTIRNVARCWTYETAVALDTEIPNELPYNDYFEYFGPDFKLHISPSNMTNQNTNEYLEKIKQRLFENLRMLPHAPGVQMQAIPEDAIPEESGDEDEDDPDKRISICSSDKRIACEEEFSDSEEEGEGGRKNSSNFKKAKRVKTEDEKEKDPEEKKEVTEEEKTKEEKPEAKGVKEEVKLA
Structure (SMILES),IC50 [15] [nM],IC50 [16] [nM],further results
COc1cc(OC)c2c(N3CCN(C)CC3)nc(-c3cc(C)c(OCCCCCC(=O)NO)c(C)c3)nc2c1,–,–,IC50 [1]: 86.9 nM; IC50 [2]: 97.3 nM; IC50 [3]: 79.2 nM; IC50 [4]: 378 nM; IC50 [5]: > 1000 nM; IC50 [6]: > 1000 nM; IC50 [7]: > 1000 nM; IC50 [8]: > 1000 nM; IC50 [9]: > 1000 nM; t1/2 [10]: 1.24 h; Tmax [11]: 0.79 h; Cmax [12]: 120.36 ng/mL; AUC(0-t) [13]: 1280 ng·h/mL; AUC [14]: 1289.4 ng·h/mL
COc1cc(OC)c2c(N3CCS(=O)(=O)CC3)nc(-c3cc(C)c(OCCCC(=O)NO)c(C)c3)nc2c1,850,18400,–
COc1cc(OC)c2c(N3CCOCC3)nc(-c3cc(C)c(OCC(=O)NO)c(C)c3)nc2c1,> 20000,35900,–
COc1cc(OC)c2c(N3CCOC[C@@H]3C)nc(-c3cc(C)c(OCCCCCC(=O)NO)c(C)c3)nc2c1,98.5,3790,–
COc1cc(OC)c2c(N3CCSCC3)nc(-c3cc(C)c(OCCCC(=O)NO)c(C)c3)nc2c1,420,15700,–
COc1cc(OC)c2c(N3CCOCC3)nc(-c3cc(C)c(OCCCC(=O)NO)c(C)c3)nc2c1,350,11400,–
COc1cc(OC)c2c(N3CCSCC3)nc(-c3cc(C)c(OCC(=O)NO)c(C)c3)nc2c1,> 20000,37200,–
COc1cc(OC)c2c(N3CCSCC3)nc(-c3cc(C)c(OCCCCCC(=O)NO)c(C)c3)nc2c1,129,8890,–
COc1cc(OC)c2c(N3CCS(=O)(=O)CC3)nc(-c3cc(C)c(OCC(=O)NO)c(C)c3)nc2c1,> 20000,> 50000,–
COc1cc(OC)c2c(N3CCOC[C@@H]3C)nc(-c3cc(C)c(OCCCCC(=O)NO)c(C)c3)nc2c1,190,6600,–
COc1cc(OC)c2c(N3CCOC[C@@H]3C)nc(-c3cc(C)c(OCC(=O)NO)c(C)c3)nc2c1,> 20000,29400,–
